Measured values published in paper PMC7845544 (Frontiers in Pharmacology, 2021).
Where “and” joins values, the source holds several entries; their conditions need not be identical. Equal entries are not always repeated.

Legend:
[1] = target: T1, hFSHR (Homo sapiens, UniProt P23945); assay: cAMP (HTRF) in CHO cells transfected with hFSHR; type: cell-based; settings: for EC50: compounds in presence of EC20 ligand (Figure 1 legend); for EC50 / % Response, CHO-hFSHR: mean ± SEM; for % Response, CHO-hFSHR: maximal cAMP vs maximal response of protein ligand FSH
T1 construct: expressed in transfected cells
T1 sequence (P23945 18-695): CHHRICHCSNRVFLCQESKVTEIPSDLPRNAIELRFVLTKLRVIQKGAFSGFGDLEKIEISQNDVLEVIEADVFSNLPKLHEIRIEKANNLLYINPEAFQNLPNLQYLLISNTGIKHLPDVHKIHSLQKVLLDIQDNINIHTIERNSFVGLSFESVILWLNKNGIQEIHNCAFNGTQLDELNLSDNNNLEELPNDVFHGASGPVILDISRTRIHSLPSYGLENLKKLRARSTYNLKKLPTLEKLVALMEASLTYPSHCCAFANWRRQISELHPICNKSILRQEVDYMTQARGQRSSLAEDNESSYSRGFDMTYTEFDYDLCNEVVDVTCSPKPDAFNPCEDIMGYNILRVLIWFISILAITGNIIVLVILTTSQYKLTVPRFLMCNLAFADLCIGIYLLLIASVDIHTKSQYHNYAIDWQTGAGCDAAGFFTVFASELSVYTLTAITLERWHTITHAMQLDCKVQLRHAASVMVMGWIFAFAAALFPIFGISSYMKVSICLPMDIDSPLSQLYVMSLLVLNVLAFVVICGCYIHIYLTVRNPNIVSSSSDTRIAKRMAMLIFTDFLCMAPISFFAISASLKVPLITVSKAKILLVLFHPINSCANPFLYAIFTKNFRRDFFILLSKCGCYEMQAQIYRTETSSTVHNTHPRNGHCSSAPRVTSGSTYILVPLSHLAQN
Procedure: (§1) Chinese hamster ovary (CHO) cells transfected with hFSHR, hLHR or hTSHR were grown as described previously ([Kelton et al., 1992]; [Persani et al., 1993]; [Yu et al., 2014]). In brief, CHO-hFSHR and CHO-hTSHR were maintained in DMEM/F12 + 10% FBS in T150 culture flasks. The cells were cultured until they reached 70–80% confluence (three days) and were then used for assays or passaged. CHO-hLHR ([van de Lagemaat et al., 2009]; [Sriraman et al., 2014]) was cultured in MEM alpha (++) +10% FBS and G418, and passaged every three days. CHO-hFSHR or −hLHR or −hTSR cells (2,500/well) were plated in 5 µL of phenol red free DMEM/F12 + 1% FBS in 384 well solid white low volume plates (Greiner 784075) by Multidrop. […] The plates were incubated at 37°C for 1 h. After the incubation period, cAMP was measured by HTRF® (homogeneous time-resolved fluorescence) assay (CisBio, Bedford, MA). In brief, conditioned media were incubated with cryptate-labeled cAMP antibody and d2-labeled cAMP in lysis buffer for 1 h. Free cAMP produced by cells competes with cAMP-d2 for binding to the anti-cAMP cryptate. An increase in cellular cAMP leads to a decrease in fluorescence resonance energy transfer, which is detectable as a decrease in the emission at 665 nm, measured by Envision fluorescence reader (PerkinElmer, Waltham, MA). The readout was calculated fluorescence ratio (665/620 nm). Values given in percent (%) indicate the percent response at a certain concentration of agonist relative to the maximum response of the protein ligand standard.

[2] = target: T2, hLH/CGR (Homo sapiens, UniProt P22888); assay: cAMP (HTRF) in CHO cells transfected with hLH/CGR; type: cell-based; settings: for EC50: compounds in presence of EC20 ligand (Figure 1 legend); for EC50 / % Response, CHO-hLH/CGR: mean ± SEM; for % Response, CHO-hLH/CGR: maximal cAMP vs maximal response of hCG
T2 construct: expressed in transfected cells
T2 sequence (P22888 27-699): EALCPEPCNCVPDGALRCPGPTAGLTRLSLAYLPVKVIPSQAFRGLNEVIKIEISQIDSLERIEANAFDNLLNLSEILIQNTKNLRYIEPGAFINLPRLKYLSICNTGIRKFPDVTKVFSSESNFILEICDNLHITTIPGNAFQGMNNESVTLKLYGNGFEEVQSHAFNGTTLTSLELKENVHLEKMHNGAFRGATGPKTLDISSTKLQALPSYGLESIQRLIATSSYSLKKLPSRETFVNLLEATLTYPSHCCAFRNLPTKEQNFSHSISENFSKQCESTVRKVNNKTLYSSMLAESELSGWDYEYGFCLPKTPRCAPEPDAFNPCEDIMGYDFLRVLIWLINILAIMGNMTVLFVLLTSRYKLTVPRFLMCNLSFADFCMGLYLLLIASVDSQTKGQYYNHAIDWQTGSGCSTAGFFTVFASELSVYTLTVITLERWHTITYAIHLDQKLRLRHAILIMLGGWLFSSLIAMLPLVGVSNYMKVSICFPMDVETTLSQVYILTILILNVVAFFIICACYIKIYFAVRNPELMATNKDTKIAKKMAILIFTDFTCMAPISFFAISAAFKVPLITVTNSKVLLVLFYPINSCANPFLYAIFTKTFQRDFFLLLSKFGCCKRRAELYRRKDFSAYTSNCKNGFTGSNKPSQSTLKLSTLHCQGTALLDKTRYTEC
Procedure: as §1

[3] = system: rat Leydig cells; assay: Testosterone production from rat primary Leydig cells; type: cell-based; settings: 3 h incubation
Procedure: Testes were obtained from 21 day old male SD rats, decapsulated into DMEM/F12 media, placed into a spinner flask containing pre-warmed 25 ml digestion media (DMEM/F12 no phenol red + 1 mg/ml Collagenase), and stirred at 37°C in 5% CO2 incubator for 10–15 min ([Hedger et al., 1990]). The digestion supernatant was passed through a 70 um cell strainer into a 50 ml tube, and the digestion was stopped with 0.1% BSA + 0.1 mg/ml trypsin soybean inhibitor) in 50 ml. The digested cells were centrifuged at 800 rpm for 5 min, the supernatant discarded and the cell pellet resuspend in 1 ml assay buffer (DMEM/F12 no phenol red +0.1% BSA) per paired testes. The cells were counted and diluted to 5 × 10^6 cells/ml, and 50 ul of this cell suspension was added to each well of a 96-well plate. Testes obtained from five 21 day old rats generally yielded 1 × 10^8 cells. […] At the end of incubation, media was collected and testosterone measured by ELISA (EIA‐1559, DRG).

[4] = system: human granulosa cells; assay: Estradiol production from pooled human granulosa-lutein cells (Boston IVF); type: cell-based; settings: for EC50: pooled granulosa-lutein cells from two patients (Figure 4A), read-out: EC50, 17β-estradiol production; for maximal 17β-estradiol response: three patients (Figure 4B)
Procedure: Human granulosa cells were prepared from the spent follicular fluid of women undergoing IVF treatment at Boston IVF Center (Waltham, MA, United States) and at Family Fertility Center (Baylor College of Medicine, Houston, TX, United States) following methods previously established ([Breckwoldt et al., 1996]; [Amsterdam et al., 2003]). Institutional review board approval and informed consent from the patients were obtained before collecting the follicular fluid samples. In brief, red blood cells (RBCs) in the follicular aspirate were lyzed using RBC lysis buffer (Quality Biological Inc., Gaithersburg, MD, United States), and washed extensively with PBS and DMEM/F12 containing 5% FBS, fungizone, and the antibiotics penicillin (100 IU/ml) and streptomycin (100 μg/ml). Subsequently, cells from the aspirate were plated in T75 flasks, cultured for 7 days with fresh media being replaced every other day. At the end of the culture period, cells were released from the flask by trypsin and transferred to 96-well plates (5,000 cells/well, Greiner Bio-One). Following 48 h of culture, media in culture wells was replaced with serum free media containing 0.1% BSA and 10^−7 M androstenedione. Following 24 h of serum starvation, cells were stimulated with fresh media (0.1% BSA, 10^−7 M androstenedione) with FSH or compound for 48 h. Supernatant was collected and stored at −80C for determination of estradiol by ELISA.

[5] = Rat pharmacokinetics; type: in vivo; settings: for Rat PK %F: oral bioavailability
Procedure: […] Blood samples were collected at serial time points from 5 min to 24 h. The circulating concentrations of the compound in plasma samples were analyzed by HPLC. PK parameters were determined with Phoenix WinNonlin software (Pharsight Corporation, Sunnyvale, CA, United States) using a non-compartmental model.

[6] = microsomes
[7] = microsomes; remark: listed apart in the source

Structure (SMILES) | EC50 [1] | % Response, CHO-hFSHR [1] | EC50 [2] | % Response, CHO-hLH/CGR [2] | testosterone production from cultured rat Leydig cells [3] | EC50 [4] | maximal 17β-estradiol response ([4]; second culture) | Clint, rat [6] | Clint, monkey [7] | also measured
COc1cc(C(N)=O)cc(-c2cc3c(cc2OC)OCc2c(C(=O)N(C)C(C)(C)C)nn(-c4cc(Cl)cc(Cl)c4)c2-3)n1 [TOP5668] | 0.0022 µM | 100.75 ± 0.51% | 0.176 µM | 96.64 ± 0.61% | very little activity | 0.015 µM | 200 ng/mL | 7 µl/min/mg protein | 117 µl/min/mg protein | fold more potent than TOP5300 in hFSHR-AA activity ([1]; CHO-hFSHR): 3-4 fold; Ratio of EC50 LHR/FSHR ([2]; CHO assays): 80; fold more potent than TOP5300, 17β-estradiol production ([4]; pooled cells from two patients (Figure 4A)): 30 fold; fold greater maximal estradiol response than rec-hFSH ([4]; pooled human granulosa cells, second culture (Figure 4B)): approximately 7 fold; potency shift to the left of TOP5300 ([4]; second culture, pooled cells from three patients (Figure 4B)): ~100 fold; fold lower exposure than TOP5300 ([5]; mature rat pharmacokinetic models): 3-4 fold; Rat PK AUC ([5]; 5 mg/kg): 1,530 ng*h/ml; Rat PK Cmax ([5]; 5 mg/kg): 0.132 µg/mL; Rat PK T1/2 ([5]; 5 mg/kg): 2.4 h; Rat PK %F ([5]; 5 mg/kg): 5% and 5.4%
COc1cc2c(cc1-c1cnn(CCO)c1)-c1c(c(C(=O)N(C)C(C)(C)C)nn1-c1cc(Cl)cc(Cl)c1)CO2 [TOP5300] | 0.00972 µM | 98.4 ± 0.31% | 0.0567 µM | 95.68 ± 0.37% | stimulated concentration-dependent increases in testosterone production | 0.474 µM | 200 ng/mL | 11 µl/min/mg protein | 165 µl/min/mg protein | Rat PK AUC ([5]; 10 mg/kg): 2,655 ng*h/ml; Rat PK Cmax ([5]; 10 mg/kg): 0.237 µg/mL; Rat PK T1/2 ([5]; 10 mg/kg): 5.1 h; Rat PK %F ([5]; 10 mg/kg): 20%
